According to patent publication US20180186796A1, “COMPOUNDS AND USES THEREOF” (LEAD DISCOVERY SIENA S.R.L., priority 2014, published 2018):
≈ marks a conversion by molar mass, not a printed value. Like-named read-outs stand apart in the source and are kept apart here. Blank lines part the entries; values can stand above or below the compound they belong to.

Columns and labels:
[1] = molecular target: T1, Recombinant human Src (Homo sapiens, UniProt P12931); assay: Enzymatic assay on isolated Src; assay type: biochemical
T1 construct: purchased Upstate (Lake Placid, N.Y.)
T1 sequence (P12931 whole entry): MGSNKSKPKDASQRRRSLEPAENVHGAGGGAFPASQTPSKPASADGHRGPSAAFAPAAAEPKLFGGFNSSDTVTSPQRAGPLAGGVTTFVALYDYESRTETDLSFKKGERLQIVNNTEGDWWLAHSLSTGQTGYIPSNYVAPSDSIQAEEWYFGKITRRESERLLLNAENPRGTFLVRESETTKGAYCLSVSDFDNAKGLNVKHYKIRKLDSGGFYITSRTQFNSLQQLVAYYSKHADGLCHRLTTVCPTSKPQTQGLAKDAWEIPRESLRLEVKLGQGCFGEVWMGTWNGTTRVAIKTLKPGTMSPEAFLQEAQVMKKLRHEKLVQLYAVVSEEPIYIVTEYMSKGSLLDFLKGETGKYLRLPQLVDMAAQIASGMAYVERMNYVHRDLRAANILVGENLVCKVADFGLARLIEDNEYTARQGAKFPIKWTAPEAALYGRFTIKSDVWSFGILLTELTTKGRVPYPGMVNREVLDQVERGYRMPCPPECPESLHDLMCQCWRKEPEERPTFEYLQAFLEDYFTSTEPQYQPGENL
Description: Recombinant human Src was purchased from Upstate (Lake Placid, N.Y.).

[2] = Microsomal stability assay; conditions: for Metabolic Stab.: percentage of unmodified parent drug, human liver microsomes 60 min; for Metabolic Stab. %: percentage of unmodified drug, Table 8
[3] = PAMPA, intestinal (GI) permeability; conditions: for Papp / Papp at 5 h, 0.5 mM: PAMPA; for Papp: Table 6; for PAMPA GI (MR %): Membrane Retention; for Papp at 5 h, 0.5 mM: pH 7.4
Protocol: (§1) Donor solution (0.5 mM) was prepared by diluting 1 mM dimethylsulfoxide (DMSO) compound stock solution using phosphate buffer (pH 7.4, 0.025 M). […] Donor solution (150 μL) was added to each well of the filter plate. To each well of the acceptor plate were added 300 μL of solution (50% DMSO in phosphate buffer). All compounds were tested in three different plates on different days. The sandwich was incubated for 5 h at room temperature under gentle shaking. After the incubation time, the plates were separated, and samples were taken from both receiver and donor sides and analyzed using LC with UV detection at 280 nm.
(§2) Permeability (Papp) for PAMPA was calculated according to the following equation, obtained from Wohnsland and Faller^27 and Sugano et al.^28 equation with some modification in order to obtain permeability values in cm s^−1,
(§3) Drug concentration is estimated by using the peak area integration. Membrane retentions (%) were calculated according to the following equation:
(§4) where r is the ratio between drug concentration in the acceptor and equilibrium concentration, D, A, and Eq represented drug concentration in the donor, acceptor and equilibrium solution, respectively.
(§5) Donor solution of tested compounds (0.5 mM) was prepared by diluting 1 mM dimethylsulfoxide (DMSO) compound stock solution using phosphate buffer (pH 7.4, 25 mM). […] Donor solution (150 μL) was added to each well of the filter plate. To each well of the acceptor plate were added 300 μL of solution (50% DMSO in phosphate buffer). Compounds was tested in three different plates on different days. The sandwich was incubated for 5 h at room temperature under gentle shaking.
(§6) Permeability (Papp) for PAMPA was calculated according to the following equation, obtained from Wohnsland and Faller and Sugano et al.^27, 28.
(§7) Drug concentration is estimated by using the peak area integration. Membrane retention (%) was calculated according to the following equation:

[4] = molecular target: recombinant Fyn (Homo sapiens, UniProt P06241); assay: Enzymatic assay on isolated Fyn kinase
recombinant Fyn, sequence (P06241 whole entry, looked up): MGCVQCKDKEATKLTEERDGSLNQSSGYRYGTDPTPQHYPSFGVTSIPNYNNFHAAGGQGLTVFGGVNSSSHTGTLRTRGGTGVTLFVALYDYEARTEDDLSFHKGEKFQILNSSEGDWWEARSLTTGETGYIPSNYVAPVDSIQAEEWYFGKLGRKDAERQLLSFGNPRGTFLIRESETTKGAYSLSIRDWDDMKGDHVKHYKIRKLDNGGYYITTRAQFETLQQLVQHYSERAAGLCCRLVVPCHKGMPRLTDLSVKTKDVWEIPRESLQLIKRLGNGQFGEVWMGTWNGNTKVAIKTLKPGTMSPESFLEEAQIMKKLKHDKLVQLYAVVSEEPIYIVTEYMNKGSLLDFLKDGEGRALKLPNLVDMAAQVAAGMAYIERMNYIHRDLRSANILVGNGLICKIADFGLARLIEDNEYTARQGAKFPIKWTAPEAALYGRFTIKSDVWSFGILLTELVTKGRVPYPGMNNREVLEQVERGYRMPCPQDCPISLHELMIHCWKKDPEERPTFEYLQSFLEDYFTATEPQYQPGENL
Protocol: Kinase assays were performed in presence of 200 μM ATP and 100 μM peptide substrate. All inhibition assays were conducted with 0.01 μg active kinase, 0.33 μmol [^γ32P]ATP, 60 mM HEPES-NaOH pH 7.5, 3 μM Na-orthovanadate, 1.2 mM DTT, 50 μg/ml PEG20.0000, 10 mM magnesium acetate, 0.004% NP40 and 10% DMSO in a final volume of 10 μL. Fyn and inhibitors were preincubated in ice for 5 min; after addition of the substrates the reaction was conducted at 30° C. for 10 min. The reaction was stopped by adding 5 μL of 3% phosphoric acid. Aliquots (10 μL) were then transferred into a P30 Filtermat (PerkinElmer), washed five times with 75 mM phosphoric acid and once with acetone for 5 minute. The filter was dried and transferred to a sealable plastic bag, and scintillation cocktail (4 mL) was added. Spotted reactions were read in a MicroBeta Liquid (Perkinelmer) scintillation counter. The ID50 values were obtained according to the following equation:
Ki values toward recombinant Fyn were calculated using the equation:
according to a competitive mechanism of inhibition toward ATP substrate, where [SATP] is the concentration of ATP. Curve fitting was performed with the program GraphPad Prism version 5.00.

[5] = Water solubility assay; conditions: for solubility at 24 h / solubility thermodynamic at 24 h: water, 20 °C, thermodynamic from solid; for H2O Solubility: Table 6
Protocol: Each solid compound (1 mg) was added to 1 mL of water. […] The suspensions were filtered through a 0.45 μm nylon filter (Acrodisc), and the solubilized compound determined by LC-MS-MS assay. For each compound the determination was performed in triplicate. […] The flow rate was 0.2 mL min-^−1 and injection volume was 5 μL. The instrument operated in positive mode and parameters were: detector 1850 V, drying gas pressure 25.0 psi, desolvation temperature 300.0° C., nebulizing gas 40.0 psi, needle 5000 V and shield 600 V. Nitrogen was used as nebulizer gas and drying gas.
Solid compound (1 mg) was added to 1 mL of water. […] The suspensions were filtered through a 0.45-μm nylon filter (Acrodisc), and the solubilised compound determined by LC-UV-MS assay. The determination was performed in triplicate.
Chromatographic analysis was performed with the method above reported and quantification of compounds was made by comparison with apposite calibration curves realized with standard solutions in methanol.

[6] = PAMPA, BBB permeability; conditions: for PAMPA BBB (MR %): Membrane Retention; for Papp at 5 h, 0.5 mM: PAMPA, pH 7.4
Protocol: as §1, §2, §3, §4, §5, §6, §7

[7] = Stability tests in phosphate buffer and methanol; assay type: physicochemical; conditions: 20° C., 48 h incubation
[8] = Enzymatic stability in human plasma; assay type: in vitro ADME; conditions: human, pooled human plasma diluted with phosphate buffer, pH 7.4; 37° C.; read-out: Stability Human Plasma t1/2 (converted)
[9] = mean of at least two experiments, read-out: Enzymatic Data (Ki, μM) c-Src
[10] = read-out: Enzymatic Data (Ki, μM) Fyn

Compound: CSc1nc(Nc2ccccc2)c2cnn(CCc3ccccc3)c2n1
Ki [1, 9]: 1.46 µM
Metabolic Stab. [2]: 90%
Papp [3]: 7.60 10^−6 cm/sec

Compound: CSc1nc(Nc2cccc(F)c2)c2cnn(CCc3ccccc3)c2n1
Ki [1, 9]: 1.06 µM
Papp [3]: 9.33 10^−6 cm/sec

Compound: CSc1nc(Nc2cccc(Br)c2)c2cnn(CCc3ccccc3)c2n1
Ki [1, 9]: 0.2 µM
Papp [3]: 3.26 10^−6 cm/sec

Compound: CSc1nc(Nc2cccc(O)c2)c2cnn(CCc3ccccc3)c2n1
Ki [1, 9]: 0.62 µM
Papp [3]: 5.24 10^−6 cm/sec

Compound: Clc1cccc(Nc2nc(SCCN3CCOCC3)nc3c2cnn3CCc2ccccc2)c1
Ki [1, 9]: 1.2 µM
Papp [3]: 3.50 10^−6 cm/sec

Compound: CCSc1nc(Nc2cccc(F)c2)c2cnn(CC(C)c3ccccc3)c2n1 (stereo not shown)
Ki [1, 9]: 0.79 µM
Metabolic Stab. [2]: 94%
Papp [3]: 1.72 10^−6 cm/sec

Compound: CCSc1nc(Nc2cccc(Cl)c2)c2cnn(CC(C)c3ccccc3)c2n1 (stereo not shown)
Ki [1, 9]: 0.55 µM
Papp [3]: 3.81 10^−6 cm/sec

Compound: CCSc1nc(Nc2cccc(Br)c2)c2cnn(CC(C)c3ccccc3)c2n1 (stereo not shown)
Ki [1]: ~0.1 µM
Ki [1, 9]: 0.1 µM
Papp [3]: 2.03 10^−6 cm/sec

Compound: CCSc1nc(Nc2cccc(O)c2)c2cnn(CC(C)c3ccccc3)c2n1 (stereo not shown)
Ki [1, 9]: 0.11 µM
Papp [3]: 4.91 10^−6 cm/sec

Compound: CC(Cn1ncc2c(Nc3ccccc3)nc(SCCN3CCOCC3)nc21)c1ccccc1 (stereo not shown)
Ki [1, 9]: 1.44 µM
Papp [3]: 3.66 10^−6 cm/sec

Compound: CC(Cn1ncc2c(Nc3cccc(F)c3)nc(SCCN3CCOCC3)nc21)c1ccccc1 (stereo not shown)
Ki [1, 9]: 2.34 µM
Papp [3]: 6.51 10^−6 cm/sec

Compound: CC(Cn1ncc2c(Nc3cccc(Cl)c3)nc(SCCN3CCOCC3)nc21)c1ccccc1 (stereo not shown)
Ki [1, 9]: 0.97 µM
Papp [3]: 5.51 10^−6 cm/sec

Compound: CCCCSc1nc(Nc2cccc(O)c2)c2cnn(CC(Cl)c3ccccc3)c2n1 (stereo not shown)
Ki [1, 9]: 0.13 µM
Papp [3]: 3.43 10^−6 cm/sec

Compound: CC(C)Sc1nc(Nc2ccccc2)c2cnn(CC(Cl)c3ccccc3)c2n1 (stereo not shown)
Ki [1, 9]: 0.3 µM

Compound: CC(C)Sc1nc(Nc2cccc(F)c2)c2cnn(CC(Cl)c3ccccc3)c2n1 (stereo not shown)
Ki [1, 9]: 0.26 µM

Compound: CC(C)Sc1nc(Nc2cccc(Br)c2)c2cnn(CC(Cl)c3ccccc3)c2n1 (stereo not shown)
Ki [1, 9]: 0.62 µM

Compound: ClC(Cn1ncc2c(Nc3ccccc3)nc(SC3CCCC3)nc21)c1ccccc1 (stereo not shown)
Ki [1, 9]: 0.12 µM
Metabolic Stab. [2]: 94%
Papp [3]: 13 10^−6 cm/sec

Ki [4, 10]: 1.62 µM
Compound: CC(Cn1nc(-c2ccc3[nH]ccc3c2)c2c(N)ncnc21)c1ccccc1 (stereo not shown)

Ki [4]: > 100 µM
Compound: CCCCSc1nc(NCCc2ccccc2)c2cnn(CC(Cl)c3ccccc3)c2n1 (stereo not shown)

Ki [4]: > 100 µM
Compound: ClC(Cn1ncc2c(NCCc3ccccc3)nc(SC3CCCC3)nc21)c1ccccc1 (stereo not shown)

Ki [4]: > 100 µM
Compound: ClC(Cn1ncc2c(NCCc3ccccc3)nc(SCCN3CCOCC3)nc21)c1ccccc1 (stereo not shown)

Ki [4, 10]: 1.49 µM
Compound: COc1ccc(-c2nn(CC(Cl)c3ccccc3)c3ncnc(N)c23)cc1 (stereo not shown)

Compound: CNc1nc(SC)nc2c1c(-c1ccccc1)nn2CCc1ccccc1
Ki [4]: > 10 µM

Compound: COC(Cn1nc(-c2ccccc2)c2c(N)nc(SC)nc21)c1ccccc1 (stereo not shown)
Ki [4]: > 10 µM

Compound: ClC(Cn1ncc2c(NCc3ccccc3)ncnc21)c1ccccc1 (stereo not shown) [Si3]
Ki ([4]; read-out: Ki Fyn): 3.5 µM

solubility at 24 h [5]: 0.166 µM (≈ 0.0704 µg/mL)
solubility thermodynamic at 24 h [5]: 0.07 µg/mL (≈ 0.165 µM)
PAMPA BBB (MR %) [6]: (24.5) %
Papp at 5 h, 0.5 mM [6]: 61.7 nm/s
Metabolic Stab. % [2]: 96.2%
PAMPA GI (MR %) [3]: (33.0) %
Papp at 5 h, 0.5 mM [3]: 74 nm/s
Compound: CSc1nc(NCCc2ccccc2)c2cnn(CC(Cl)c3ccccc3)c2n1 (stereo not shown) [Si35, 1-(2-chloro-2-phenylethyl)-6-(methylthio)-N-phenethyl-1H-pyrazolo[3,4-d]pyrimidin-4-amine]

Compound: OCCNc1nc(NCc2ccccc2)c2cnn(/C=C/c3ccccc3)c2n1 [Si74, 2-(4-benzylamino-1-styryl-1H-pyrazolo[3,4-d]pyrimidin-6-ylamino)-ethanol]
Ki ([4]; read-out: Ki Fyn): 1.15 µM

solubility at 24 h [5]: 0.295 µM (≈ 0.127 µg/mL)
solubility thermodynamic at 24 h [5]: 0.13 µg/mL (≈ 0.302 µM)
PAMPA BBB (MR %) [6]: (39.6) %
Papp at 5 h, 0.5 mM [6]: 31.4 nm/s
Metabolic Stab. % [2]: 91.1%
PAMPA GI (MR %) [3]: (69.9) %
Papp at 5 h, 0.5 mM [3]: 2.6 nm/s
Compound: CSc1nc(Nc2cccc(Cl)c2)c2cnn(CC(Cl)c3ccccc3)c2n1 (stereo not shown) [Si83, 1-(2-chloro-2-phenylethyl)-N-(3-chlorophenyl)-6-(methylthio)-1H-pyrazolo[3,4-d]pyrimidin-4-amine]

Compound: CCCNc1nc(SCCN2CCOCC2)nc2c1cnn2CC(Cl)c1ccccc1 (stereo not shown) [Si109, 1-(2-chloro-2-phenylethyl)-6-((2-morpholinoethyl)thio)-N-propyl-1H-pyrazolo[3,4-d]pyrimidin-4-amine]
Ki [4]: 7.5 to 16 µM

Ki [4]: 7.5 to 16 µM
Compound: ClC(Cn1ncc2c(NCc3ccccc3)nc(Cc3ccccc3)nc21)c1ccccc1 (stereo not shown) [Si164, N,6-dibenzyl-1-(2-chloro-2-phenylethyl)-1H-pyrazolo[3,4-d]pyrimidin-4-amine]

Compound: Fc1cccc(Nc2nc(SC3CCCC3)nc3c2cnn3CC(Cl)c2ccccc2)c1 (stereo not shown) [Si170, 1-(2-Chloro-2-phenylethyl)-6-(cyclopentylthio)-N-(3-fluorophenyl)-1H-pyrazolo[3,4-d]pyrimidin-4-amine]
Ki ([1]; read-out: Ki c-Src): ~0.1 µM

Compound: CCCCSc1nc(Nc2cccc(Cl)c2)c2cnn(CC(Cl)c3ccccc3)c2n1 (stereo not shown) [Si174]
Ki ([4]; read-out: Ki Fyn): 1.4 µM

Compound: Fc1ccc(CNc2nc(SCCN3CCOCC3)nc3c2cnn3CC(Cl)c2ccccc2)cc1 (stereo not shown) [Si180, 1-(2-chloro-2-phenylethyl)-N-(4-fluorobenzyl)-6-((2-morpholinoethyl)thio)-1H-pyrazolo[3,4-d]pyrimidin-4-amine]
Ki [4]: 7.5 to 16 µM

Ki [4]: 7.5 to 16 µM
Compound: CSc1nc(NCCc2cccc(Cl)c2)c2cnn(/C=C/c3ccccc3)c2n1 [Si215, N-[2-(3-chlorophenyl)ethyl]-6-(methylthio)-1-[2-phenylvinyl]-1H-pyrazolo[3,4-d]pyrimidin-4-amine]

Compound: Clc1ccccc1CNc1ncnc2c1cnn2CC(Cl)c1ccc(Br)cc1 (stereo not shown) [Si221]
H2O Sol. (Log S) ([5]; Table 8): (<−8.60) log mol · L^−1
H2O Sol. ([5]; Table 8, 20° C., 24 h): <0.01 µg/mL
PAMPA BBB ([6]; Blood Brain Barrier PAMPA): 13.23 10^−6 cm · sec^−1
PAMPA BBB (MR %) [6]: (7.3) %
Metabolic Stab. % [2]: 95.2%
PAMPA GI ([3]; Gastrointestinal PAMPA, Table 8): 8.78 10^−6 cm · sec^−1
PAMPA GI (MR %) [3]: (21.0) %

Compound: CC(Cn1ncc2c(Nc3cccc(O)c3)nc(SCCN3CCOCC3)nc21)c1ccccc1.Cl (stereo not shown) [Si329, 3-{[6-[(2-Morpholin-4-ylethyl)thio]-1-(2-phenylpropyl)-1H-pyrazolo[3,4-d]pyrimidin-4-yl]amino}phenol hydrochloride]
H2O Solubility [5]: 1 µg/mL
Metabolic Stab. [2]: 99%
Papp [3]: 6.81 10^−6 cm/sec

Compound: Cl.Oc1cccc(Nc2nc(SCCN3CCOCC3)nc3c2cnn3CCc2ccccc2)c1 [Si332, 3-{[6-[(2-Morpholin-4-ylethyl)thio]-1-(2-phenylethyl)-1H-pyrazolo[3,4-d]pyrimidin-4-yl]amino}phenol hydrochloride]
H2O Solubility [5]: 97 µg/mL
solubility value ([5]; aqueous): 97 µg/mL
Metabolic Stab. [2]: 97%
Papp [3]: 6.38 10^−6 cm/sec

Compound: CC(Cn1nc(-c2ccc(Cl)cc2)c2c(N)ncnc21)c1ccccc1 (stereo not shown) [Si337, 3-(4-Chlorophenyl)-1-(2-phenylpropyl)-1H-pyrazolo[3,4-d]pyrimidin-4-amine]
Ki [4]: 0.78 µM
decreased Fyn activity on substitution of chlorine by methyl in N1 side chain ([4]; Si312 vs Si244, Si337 vs Si308, Si338 vs Si309): about 10 fold

Ki [1, 9]: 0.1 µM
Metabolic Stab. [2]: 97%
Papp at 5 h, 0.5 mM [3]: 21.5 nm/s
Compound: Fc1ccc(CCn2ncc3c(Nc4cccc(Cl)c4)nc(SCCN4CCOCC4)nc32)cc1 [drawing 171]

Compound: Fc1cccc(Nc2nc(SC3CCCC3)nc3c2cnn3CC(Cl)c2ccccc2)c1 (stereo not shown) [drawing 191, reference compound]
Ki [4]: > 100 µM

Compound: CCCNc1nc(SCCN2CCOCC2)nc2c1cnn2CC(Cl)c1ccccc1 (stereo not shown) [drawing 192]
Ki [4, 10]: 8.15 µM

Compound: Fc1ccc(CNc2nc(SCCN3CCOCC3)nc3c2cnn3CC(Cl)c2ccccc2)cc1 (stereo not shown) [drawing 193]
Ki [4, 10]: 15.5 µM

Ki [4]: > 100 µM
Compound: CCC(C)Sc1nc(NCc2ccccc2)c2cnn(CC(Cl)c3ccccc3)c2n1 (stereo not shown) [drawing 195]

Ki [4]: > 100 µM
Compound: CCC(C)Sc1nc(NCCc2ccccc2)c2cnn(CC(Cl)c3ccccc3)c2n1 (stereo not shown) [drawing 196]

Ki [4, 10]: 16 µM
Compound: CSc1nc(NCCc2cccc(Cl)c2)c2cnn(/C=C/c3ccccc3)c2n1 [drawing 198]

Ki [4, 10]: 13 µM
Compound: ClC(Cn1ncc2c(NCc3ccccc3)nc(Cc3ccccc3)nc21)c1ccccc1 (stereo not shown) [drawing 200]

Compound: CC(=O)c1ccc(-c2nn(CC(C)c3ccccc3)c3ncnc(N)c23)cc1 (stereo not shown) [drawing 206]
Ki [4]: > 10 µM

half-life at 500 μM ([7]; methanol, read-out: Stability MeOH t1/2): > 48 h
half-life at 500 μM ([7]; phosphate buffer, pH 7.4, read-out: Stability PBS pH 7.4 t1/2): > 48 h
half-life at 100 μM [8]: 35.3 h
solubility at 24 h [5]: 182 µM (≈ 108 µg/mL)
solubility thermodynamic at 24 h [5]: 107 µg/mL (≈ 180 µM)
PAMPA BBB (MR %) [6]: (88.8) %
Papp at 5 h, 0.5 mM [6]: 0.1 nm/s
PAMPA GI (MR %) [3]: (86.1) %
Papp at 5 h, 0.5 mM [3]: 8.5 nm/s
Compound: CSc1nc(N(CCc2ccccc2)C(=O)OCCN2CCN(C)CC2)c2cnn(CC(Cl)c3ccccc3)c2n1 (stereo not shown) [proSi35, 2-(4-methylpiperazin-1-yl)ethyl (1-(2-chloro-2-phenylethyl)-6-(methylthio)-1H-pyrazolo[3,4-d]pyrimidin-4-yl)(phenethyl)carbamate]
